Assay results as given in patent US5462933A, “Modified bile acid conjugates, and their use as pharmaceuticals” (Hoechst Aktiengesellschaft, priority 1989, dated 1995).

Target: T1, Na+-dependent bile acid transport system (Oryctolagus cuniculus, UniProt Q28727)
T1 construct: brush-border membrane vesicles from the ileum of rabbits; from tissue; host or cells: terminal ileum of male New Zealand rabbits, brush-border membrane vesicles
T1 sequence (Q28727 1-347): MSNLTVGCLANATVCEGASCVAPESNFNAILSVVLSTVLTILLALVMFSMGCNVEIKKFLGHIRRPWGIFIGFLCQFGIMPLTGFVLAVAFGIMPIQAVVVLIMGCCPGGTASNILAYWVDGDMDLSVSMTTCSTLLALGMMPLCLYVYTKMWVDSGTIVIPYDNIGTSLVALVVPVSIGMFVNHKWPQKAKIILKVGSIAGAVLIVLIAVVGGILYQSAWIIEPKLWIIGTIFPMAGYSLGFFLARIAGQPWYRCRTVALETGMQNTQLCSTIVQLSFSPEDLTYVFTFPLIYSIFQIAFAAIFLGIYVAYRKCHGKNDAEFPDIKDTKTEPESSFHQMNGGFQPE
Assay: Inhibition of Na+-dependent [3H]taurocholate absorption into brush-border membrane vesicles of the ileum
Format: biochemical, rabbit
Method: The preparation of brush-border membrane vesicles from the intestinal cells of the small intestine was carried out using the so-called Mg^2+ precipitation method. Male New Zealand rabbits (2-2.5 kg body weight) were sacrificed by intravenous injection of 0.5 ml of T-61^R. The small intestine was removed and rinsed with ice-cold physiological saline solution. The terminal 3/10 of the small intestine (measured in the oral-rectal direction, i.e. the terminal ileum, which contains the active Na^+ -dependent bile acid transport system) were used for preparation of the brush-border membrane vesicles. The intestines were frozen at -80° C. under nitrogen in plastic bags. The frozen intestines were thawed in a water bath at 30° C. in order to prepare the membrane vesicles. The mucosa was scraped off and suspended in 60 ml of ice-cold 12 mM trys/HCl buffer (pH 7.1)/300 mM mannitol, 5 mM EGTA/10 mg/l of phenylmethylsulfonyl fluoride/1 mg/l of soybean trypsin inhibitor (32 U/mg)/0.5 mg/l of bovine lung trypsin inhibitor (193 U/mg)/5 mg/l of bacitracin. After diluting to 300 ml with ice-cold distilled water, the suspension was homogenized with ice-cooling for 3 minutes at 75% of maximum power using an Ultraturrax (18 rod, IKA Werk Staufen, Federal Republic of Germany). After addition of 3 ml of 1M MgCl2 solution (final concentration 10 mM), the homogenate was allowed to stand at 0° C. for exactly 1 minute. As a result of addition of Mg^2+, the cell membranes aggregate and precipitate with the exception of the brush-border membranes. After centrifugation at 3,000×g (5,000 rpm, SS-34 rotor) for 15 minutes, the precipitate is discarded and the supernatant which contains the brush-border membranes is centrifuged at 26,700×g (15,000 rpm, SS-34 rotor) for 30 minutes. The supernatant was discarded, and the precipitate was rehomogenized in 60 ml of 12 mM tris/HCl buffer (pH 7.1)/60 mM mannitol, 5 mM EGTA using a Potter Elvejhem homogenizer (Braun Melsungen, 900 rpm, 10 strokes). After addition of 0.1 ml of 1M MgCl2 solution and an incubation time of 15 minutes at 0° C., the mixture was again centrifuged at 3,000×g for 15 minutes. The supernatant was then again centrifuged at […] (15,000 rpm, SS-34 rotor) for 30 minutes. The precipitate was taken up in 30 ml of 10 mM tris/hepes buffer (pH 7.4)/300 mM mannitol and homogeneously resuspended by 20 strokes in a Potter Elvejhem homogenizer at 1,000 rpm. After centrifugation at 48,000×g (20,000 rpm, SS-34 rotor) for 30 minutes, the precipitate was taken up in 0.5 to 2 ml of tris/hepes buffer (pH 7.4)/280 mM mannitol (final concentration 20 mg/ml) and resuspended with the aid of a tuberculin syringe using a 27 gauge needle. The vesicles were either used immediately after preparation for transport investigations or stored at -196° C. in liquid nitrogen in 4 mg portions.
The absorption of substrates into brush-border membrane vesicles was determined by means of the so-called membrane filtration technique. 10 μl of the vesicle suspension (100 μg of protein) were pipetted on the wall of a polystyrene incubation tube (11×70 mm) as a drop which contained the incubation medium together with the corresponding ligands (90 μl ). […] The incubation medium was filtered through a polyvinylidene fluoride membrane filter (SYHV LO 4NS, 0.45 μm, 4 mm .phi., Millipore, Eschborn, Federal Republic of Germany). The transport measurement was begun by mixing the vesicles with the incubation medium. […] After the desired incubation time (customarily 1 min), the transport was stopped by addition of 1 ml of ice-cold stop solution (10 mM tris/hepes, (pH 7.4)/150 mM KCl). The resulting mixture was immediately filtered off with suction in a vacuum of 25 to 35 mbar through a membrane filter made of cellulose nitrate (ME 25, 0.45 μm, 25 mm diameter, Schleicher & Schuell, Dassell, Federal Republic of Germany). The filter was subsequently washed with 5 ml of ice-cold Stop solution.

[1] = Na+-dependent transport component, 50 μM taurocholate

SMILES: C[C@H](CCC(=O)NCCS(=O)(=O)O)[C@H]1CC[C@H]2[C@@H]3[C@H](O)C[C@@H]4C[C@@H](OCCNC(=O)CCCc5ccc(N(CCCl)CCCl)cc5)CC[C@]4(C)[C@H]3C[C@H](O)[C@]12C [Example 67]
- IC50: 47.5 µM
- IC25 [1]: 24 µM
- IC75 [1]: 270 µM
